Source: patent US9433686B2, “Methods for treating castration resistant prostate cancer and metastasis by reducing B-cell number and/or function” (The Regents of the University of California, priority 2011, dated 2016)

Columns and labels:
[1] = test system: myc-CaP tumors; test: CR-CaP re-growth (tumor volume) of s.c. myc-CaP allografts after castration; assay type: in vivo, FVB mice; conditions: castrated mice bearing s.c. myc-CaP tumors
Protocol: FIG. 4. IKKβ-dependent lymphotoxin production by tumor-infiltrating B cells stimulates IKKα-dependent androgen-free survival. A. RNA from splenic B cells of Ikkβ^F/F and Ikkβ^Δ/Δ mice was analyzed for LTα and LTβ expression as above. Results are averages±s.d. (n=3). B. Lethally irradiated FVB males were reconstituted with BM from B-Ltβ^−/− or T-Ltβ^−/− mice (n=6 per group). After 8 weeks, myc-CaP tumors were established, mice were castrated and tumor volume was measured as above. Results are averages±s.e.m. C. FVB mice (n=6 each group) bearing myc-CaP tumors were castrated and given hIgG or LTβR-Ig (100 μg) every 5 days, starting 4 days before castration. Tumor volume was measured as above. Results are averages±s.e.m. […] Mice were castrated and tumor volume was measured. […] After 6 hrs, the cells were cultured with or without flutamide (10 μM) in the absence or presence of LTα2β1, and cell number was determined. […] After 12 hrs, cells were stimulated for 1 hr with LTα2β1, collected, divided into cytosolic (C) and nuclear (N) fractions and IKKα and histone H3 distribution was determined. In A, B, C, D and E, P values were determined and are indicated as above.
FIG. 8. […] Five months later, mice were sacrificed and prostate tumor weight and incidence of lymph node, lung and liver metastases were determined. […] Tumor volume in above mice was measured every 2-3 days. […] Tumor volume was measured as above. […]

[2] = test system: STAT3; test: STAT3 phosphorylation in myc-CaP tumors after castration (immunohistochemistry); assay type: in vivo, FVB mice; conditions: phospho-STAT3 staining
Text: FIG. 14. STAT3 activation and its role in CR-CaP emergence. A,B WT+Ikkβ^F/F and WT+Ikkβ^Δ/Δ radiation chimeras (n=10 each group) bearing myc-CaP allografts were established as above and injected with poly(IC) to delete IKKβ[…] in BMDC before castration or sham operation. After one month, mice were sacrificed for analysis. A. Lymphocytes were isolated from indicated tissues and analyzed for IKKβ expression. B. Tumor samples were immunoblotted to determine expression and phosphorylation of indicated signaling proteins. C,D FVB mice bearing myc-CaP tumors were castrated. Starting one day before castration, the mice (n=10 per group) were injected twice daily with vehicle or AG490, an inhibitor of STAT3 phosphorylation. C. One week after castration, tumors were collected, paraffin-embedded, sectioned and stained with phospho-STAT3 antibody. D. Tumor volume was measured every 2-3 days as above. Results are averages±s.e.m. P values were determined and are indicated as above.
FIG. 23. LTβ is required for IKKα nuclear localization and STAT3 phosphorylation. Mice carrying Myc-CaP tumors were castrated and treated with vehicle or LTβR-Ig as described above. Paraffin-embedded sections were analyzed for IKKα nuclear localization and STAT3 phosphorylation.
Mouse prostate and CaP tissues and dissected metastatic tumors were immersed in 10% neutral buffered formalin before sectioning and paraffin embedding. […]

[3] = test system: IKK; test: IκBα phosphorylation in PMA-stimulated Myc-CaP cells; assay type: cell-based, mouse; conditions: 1 hr pre-treatment, AG490 100 μM, PMA 10 ng/ml 10 min
Protocol: (§1) FIG. 15. Selectivity of IKKβ and STAT3 phosphorylation inhibitors. A. Myc-CaP cells were cultured to 60% confluency and pre-treated for 1 hr with AG490 (100 μM) or ML120B (20 μM), followed by stimulation with PMA (10 ng/ml) for 10 min. Cells were collected and IκBα phosphorylation was analyzed. B. Myc-CaP cells were pre-treated with AG490 or ML120B and after 1 hr, were stimulated with IL-6 (20 ng/ml) for 30 min. Cells were collected and STAT3 phosphorylation was analyzed by immunoblotting.
(§2) Total tissue RNA was prepared using RNAeasy (Qiagen). Quantitative PCR was performed as described^38. Cells and tumors were lysed and analyzed by SDS-polyacrylamide gel electrophoresis and immunoblotting^38 with antibodies to histone H3, α-tubulin, STAT3 (Santa Cruz Biotechnology), ERK, phospho-ERK, AKT, phospho-AKT, phospho-STAT3 (Cell Signaling). Nuclear extracts were prepared and analyzed for NF-κB DNA-binding as described^39.

[4] = test system: STAT3; test: STAT3 phosphorylation in IL-6-stimulated Myc-CaP cells (immunoblotting); assay type: cell-based, mouse; conditions: 1 hr pre-treatment, IL-6 20 ng/ml 30 min
Protocol: as §1, §2

Structure (SMILES)	CR-CaP growth / appearance after castration (tumor volume) [1]	STAT3 activation (phosphorylation) in CaP cells of tumors [2]	IKK activation (IκBα phosphorylation) [3]	STAT3 activation (phosphorylation) [4]
N#C/C(=C/c1ccc(O)c(O)c1)C(=O)NCc1ccccc1 [A490]	delayed	inhibitable	did not inhibit	–
COc1c(Cl)cc2c([nH]c3cnccc32)c1NC(=O)c1cccnc1C [ML120B, N-(6-chloro-7-methoxy-9H-β-carbolin-8-yl)-2-methylnicotinamide]	–	–	–	did not inhibit
